Test results from the NIST ThermoML archive (doi:10.1016/j.jct.2011.09.028).
Numbers after ± are expanded uncertainties.

Conditions: 101.33 kPa, Liquid, Vibrating tube method

CCn1cc[n+](C)c1.N#C[B-](C#N)(C#N)C#N [1-ethyl-3-methylimidazolium tetracyanoborate]
Conditions	mass density [kg/m3]
288.15 K	1044.44 ± 0.26
293.15 K	1040.43 ± 0.26
298.15 K	1036.44 ± 0.26
303.15 K	1032.47 ± 0.26
308.15 K	1028.54 ± 0.25
313.15 K	1024.64 ± 0.25
318.15 K	1020.76 ± 0.25
